Reference: patent US6150412A, “Catechol derivatives” (Orion-yhtyma Oy, priority 1995, dated 2000)
Where two headings read alike, the source gives them in different places.

Key:
[1] = Determination of plasma concentrations after oral dosing; type: in vivo; conditions: rat, male Wistar rats, orally dosed 10 mg/kg, read-out: Plasma c; for concentration at 0.5 h: t = 30 min; for concentration at 5 h: t = 5 h
Procedure: Male Wistar rats (220-280 g) were orally dosed (10 mg/kg) with test compounds. Control animals received the vehicle only. Blood samples were drawn from the tail artery 0.5 and 5 hours after the treatment and collected into pre-cooled Li-heparinized tubes. The plasma was separated by centrifugation (11000 g, 5 min) and stored at -80° C. until analysis.
The analytes were extracted from 200 μl of acidified plasma (100 μl of 1 M HCI) with 5 ml of ethyl acetate. The organic phase (4 ml) was evaporated to dryness under a stream of nitrogen at 40° C. The residue was redissolved in 200 μl of dimethylsulphoxide and 30 μl of it was analyzed by HPLC with amperometric detection. The electrode potential was +700 mV.

S-COMT enzyme = target: T1, S-COMT enzyme (Homo sapiens, UniProt P21964); experiment: Determination of IC50 values, COMT inhibition (dopamine methylation, HPLC); type: biochemical; conditions: S-COMT enzyme (about 30 nM), 0.05 mM AdoMet, 3 mM dopamine, 5 min preincubation, 15 min at 37° C., pH 7.4
T1 sequence (P21964 1-221 isoform P21964-2): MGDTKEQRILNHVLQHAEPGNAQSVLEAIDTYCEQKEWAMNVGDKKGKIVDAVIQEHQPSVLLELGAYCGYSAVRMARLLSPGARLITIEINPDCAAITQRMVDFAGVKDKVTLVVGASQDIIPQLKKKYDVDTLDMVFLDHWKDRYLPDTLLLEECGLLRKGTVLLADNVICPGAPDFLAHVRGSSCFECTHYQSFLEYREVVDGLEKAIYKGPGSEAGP
Procedure: The studied inhibitors were first dissolved into 0.1 M NaOH solution and then diluted with distilled water to 0.5 mM inhibitor concentration. From this stock solution the inhibitor concentrations were adjusted by diluting the desired amounts of stock solution with 0.05 M phosphate buffer, pH 7.4. The studied sample solutions were prepared into the Eppendorf tubes. The final concentrations of the studied samples were; -100 mM phosphate buffer, 5 mM MgCl2, 0.05 mM AdoMet, S-COMT enzyme (about 30 nM) and the inhibitor.
The samples were mixed with Vortex, and incubated for 5 min at 37° C. The reactions were initiated with 3 mM dopamine and carried on for 15 min at 37° C. The reactions were stopped with 4 M perchloric acid and stabilized afterwards for 10 min in ice bath. The sample solutions were centrifuged for 10 min, and the methylated products, 3-methyldopamineand 4-methyidopamine, were analysed with HPLC.

Row | SMILES | IC50 (S-COMT enzyme) | other results
1 | CC(=O)C(=Cc1cc(O)c(O)c([N+](=O)[O-])c1)C(C)=O [Comparison compound 2, 2[(3,4-dihydroxy-5-nitrophenyl)methylene]-2,4-pentanedione, reference compound] |  | concentration at 0.5 h ([1]; plasma): 530 ng/mL; concentration at 5 h ([1]; plasma): < 25 ng/mL
2 | O=C(O)CCc1c([N+](=O)[O-])cc(O)c(O)c1[N+](=O)[O-] [Example 11, 3-(3,4-DIHYDROXY-2,6-DINITROPHENYL)-PROPANOIC ACID] | 30 nM | concentration at 0.5 h ([1]; in vivo): 2100 ng/mL; concentration at 5 h ([1]; in vivo): 490 ng/mL
3 | O=C(O)CCCCc1c([N+](=O)[O-])cc(O)c(O)c1[N+](=O)[O-] [Example 13, 5-(3,4-DIHYDROXY-2,6-DINITROPHENYL)-PENTANOIC ACID] | 20 nM | 

Further lines, with some results ahead:

Row | IC50 (S-COMT enzyme) | SMILES | other results
4 | 30 nM | O=Cc1cc(O)c(O)c(C=O)c1CCCCC(=O)O [Example 14, 5-(2.6-DIFORMYL-3,4-DIHYDROXYPHENYL)PENTANOIC ACID] | 
5 | 60 nM | O=Cc1cc(O)c(O)c(C=O)c1CCC(=O)O [Example 15, 3-(2,6-DIFORMYL-3,4-DIHYDROXYPHENYL)PROPANOIC ACID] | 
6 | 15 nM | N#Cc1cc(O)c(O)c(C#N)c1CCCCC(=O)O [Example 16, 5-(3,4-DIHYDROXY-2,6-DICYANOPHENYL)PENTANOIC ACID] | concentration at 0.5 h ([1]; plasma): 2000 ng/mL; concentration at 5 h ([1]; plasma): 150 ng/mL
7 | 20 nM | N#Cc1cc(O)c(O)c(C#N)c1CCC(=O)O [Example 17, 3-(2,6-DICYANO-3,4-DIHYDROXYPHENYL)PROPANOIC ACID] | 
